From patent US20070225278A1, “Methods for treating cognitive and other disorders” (priority 2006, published 2007)

How the values were obtained:
[1] = test system: male Sprague Dawley CD rats; experiment: Reversal of d-amphetamine induced deficits in pre-pulse inhibition (PPI); conditions: 3-17 mg/kg IP, d-amphetamine 4 mg/kg SC
male Sprague-Dawley rats = experiment: Schedule-induced polydipsia (SIP) in rats; type: in vivo, rat
Description: SIP is a model of obsessive-compulsive disorder. In this model, a food pellet is delivered once per minute for a two-hour period. A water bottle is available in the chamber. […] This excessive manifestation of a normal behavior (drinking) provides face validity to the model. […] Most importantly, clinically effective drugs for the treatment of obsessive-compulsive disorder decrease adjunctive drinking.
Animals: Male Sprague-Dawley rats weighing 275-325 g were individually housed in wire hanging cages. Each cage was equipped with a water spigot attached to an automated watering system which allow free access to water at all times.
Methods Rats were placed in an operant chamber (Med Associates) equipped with a pellet dispenser, a food receptacle, a houselight and a water bottle with 100 ml of water. Houselights were turned on in the chamber and a food pellet (Bioserve, 45 mg) was delivered on a fixed-time 60 sec schedule, such that one pellet was delivered each minute during a 2 hour experimental session. At the end of the session, water intake was measured.
Experiments to control for schedule and baseline water intake were conducted by placing 120 pellets in the food receptacle at the start of a 2-hour experimental session. Houselights were turned on, but no additional food pellets were delivered. At the end of the session, water intake was measured.
Dose calculations were based on active moiety.
Evaluation of Results Data were analyzed using a one-way ANOVA. Post hoc tests comparing vehicle to doses of Compound 1 were conducted using contrasts in a least squares model. An ED50 value (dose decreasing polydipsic intake to 50% of vehicle values) was calculated using nonlinear regression models.

What does the source list for `c1cc2c3c(c1)[C@H]1CCC[C@H]1N3CCNC2` [Compound 1]?
attenuation of amphetamine induced deficit in PPI ([1]; all doses tested): significantly attenuated; effect on startle alone responding [1]: without having a significant effect; change in excessive water intake (male Sprague-Dawley rats; 3 mg/kg ip, p=0.0003): −43%; change in excessive water intake (male Sprague-Dawley rats; 10 mg/kg ip, p<0.0001): −87%; ED50 (male Sprague-Dawley rats; Rattus norvegicus, ip, read-out: ED50 (dose decreasing polydipsic intake to 50% of vehicle values)): 3.16 mg/kg; rats that did not eat all of their food pellets during the 2-hour session (male Sprague-Dawley rats; highest dose (10 mg/kg ip)): 3 of 10; MED for decrease in adjunctive drinking (male Sprague-Dawley rats; ip, acute, 2 hour session): 3 mg/kg
